Laboratory results from patent US20100297692A1, “REACTION MEDIUM FOR DETECTING AND/OR IDENTTIFYING STAPHYLOCCOUS AUREUS” (BIOMERIEUX, priority 2007, published 2010).

Tests used:
[1] = tested on: Alpha-hemolytic streptococci; experiment: β-D-ribosidase substrates in Columbia agar, colored or fluorescent colonies; type: cell-based, alpha-hemolytic Streptococcus; details: 400 mg/L + ammoniacal iron citrate 100 mg/l
Protocol: (§1) The media hereinafter were prepared in 200 ml of a Columbia agar base (Oxoid), in combination with the chromogenic β-D-ribosidase substrates. The various substrates and also the concentrations and the additives used in the media are described in Table 1 below:
(§2) The β-D-ribosidase substrates are solubilized in DMSO and added to the media so as to obtain the concentrations indicated in Table 1.
(§3) 191 bacterial strains were inoculated onto each of the media using a suspension at 0.5 MacFarland diluted to 1/1000. The dishes were incubated at 37° C. and then read.
(§4) The media were distributed into Petri dishes, then inoculated with approximately 100 000 CFU, then incubated at 37° C. for 48 h. The colonies formed were examined visually after incubation times of 18, 24 and 48 hours.
(§5) The stock collection of 191 strains comprised: […], 48 Staphylococcus spp, 61 Enterococcus spp and 3 alpha-hemolytic Streptococcus.

S aureus (MRSA and MSSA) = experiment: Catechol-β-D-riboside and X-β-D-riboside on a broad panel of Staphylococcus spp; type: cell-based; details: GTS medium, 300 mg/l substrate, 500 mg/l ammoniacal iron citrate
Protocol: (§6) Catechol-β-D-riboside: A GTS medium (bioMérieux) supplemented with 300 mg/l of catechol-β-D-riboside, then autoclaved, and with 500 mg/l of ammoniacal iron citrate was used and distributed into Petri dishes 55 mm in diameter.
(§7) X-β-D-riboside: A modified Chapman medium, without NaCl, autoclaved and supplemented with 60 mg/l of X-β-D-riboside, was used and distributed into Petri dishes 55 mm in diameter.
For the two media, the inoculation was carried out using precultures prepared for 24 h at 37° C. A suspension in physiological saline at 0.5 McF was prepared and then each strain was inoculated onto a dish using a 10 μl calibrated loop. […]
(§8) In total, […] were tested: 34 S. aureus, including 25 MRSAs, and 46 other species of Staphylococcus (including S. schleiferi; S. capitis; S. hyicus; S. intermedius; S. haemolyticus; S. auricularis; S. hominis; S. warneri; S. chromogenes; S. cohnii; S. epidermidis; S. sciuri; S. xylosus; S. saprophyticus).

Micrococcus luteus = experiment: β-D-ribosidase substrates in Columbia agar, colored or fluorescent colonies; type: cell-based; details: 400 mg/L + ammoniacal iron citrate 100 mg/l
Protocol: [The procedure below names another organism; the source lists this organism under the same test.] as §1, §2, §3, §4, §5

S. aureus (MSSA) = experiment: as above; type: cell-based, Staphylococcus aureus; details: 400 mg/L + ammoniacal iron citrate 100 mg/l
Protocol: as §1, §2, §3, §4, §5

S. aureus (MRSA) = experiment: as above; type: cell-based, Staphylococcus aureus; details: 400 mg/L + ammoniacal iron citrate 100 mg/l
Protocol: as §1, §2, §3, §4, §5

[2] = tested on: Coagulase-negative Staphylococci; experiment: as above; type: cell-based, Staphylococcus spp; details: Coagulase-negative Staphylococci, 400 mg/L + ammoniacal iron citrate 100 mg/l
Protocol: as §1, §2, §3, §4, §5

Coagulase-negative = experiment: Catechol-β-D-riboside in a liquid medium, coloration; type: cell-based
Protocol: (§9) The medium hereinafter had the same composition as a chromID S. aureus base (bioMérieux), with no selective agents nor agar, so as to obtain a liquid medium. The substrates and inducers were replaced, before autoclaving, with […] of catechol-β-D-riboside, solubilized in DMSO, and with ammoniacal iron citrate at 500 mg/l. The medium was then distributed into tubes in a proportion of 1.5 ml/tube.
For this medium, the inoculation was carried out using precultures prepared for 24 h at 37° C. A suspension of physiological saline at 0.5 McF was prepared and then each tube was inoculated with 10 μl of bacterial suspension.
(§10) The readings were carried out after 24 and 48 hours of incubation at 37° C.
(§11) In total, 11 staphylococcus strains were tested; 5 S. aureus and 6 of other species of the Staphylococcus genus (coagulase-negative).

Coag neg = experiment: Catechol-β-D-riboside and X-β-D-riboside on a broad panel of Staphylococcus spp; type: cell-based; details: GTS medium, 300 mg/l substrate, 500 mg/l ammoniacal iron citrate
Protocol: as §6, §7
For the two media, the inoculation was carried out using precultures prepared for 24 h at 37° C. A suspension in physiological saline at 0.5 McF was prepared and then each strain was inoculated onto a dish using a 10 μl calibrated loop.
as §10, §8

[3] = tested on: S. aureus (MRSA and MSSA); experiment: Catechol-β-D-riboside in a liquid medium, coloration; type: cell-based, Staphylococcus aureus
Protocol: as §9
For this medium, the inoculation was carried out using precultures prepared for 24 h at 37° C. A suspension of physiological saline at 0.5 McF was prepared and then each tube was inoculated with 10 μl of bacterial suspension. […]
as §11

Enterococci = experiment: β-D-ribosidase substrates in Columbia agar, colored or fluorescent colonies; type: cell-based, Enterococcus spp; details: 400 mg/L + ammoniacal iron citrate 100 mg/l
Protocol: as §1, §2, §3, §4, §5

OC[C@H]1O[C@@H](Oc2ccccc2O)[C@H](O)[C@@H]1O [Catechol-β-riboside, 2-Hydroxyphenyl-beta-D-riboside]
% of strains producing colored or fluorescent colonies ([1]; 18 h): 0% | % of strains producing colored or fluorescent colonies ([1]; 24 h): 0% | % of strains producing colored or fluorescent colonies ([1]; 48 h): 0% | Number of strains producing a coloration/total number of strains, positive at 18 h (S aureus (MRSA and MSSA); 18 h): 19/34 | Number of strains producing a coloration/total number of strains, positive at 24 h (S aureus (MRSA and MSSA); 24 h): 31/34 | Number of strains producing a coloration/total number of strains, positive at 48 h (S aureus (MRSA and MSSA); 48 h): 34/34 | % of strains producing colored or fluorescent colonies (Micrococcus luteus; 18 h): 0% | % of strains producing colored or fluorescent colonies (Micrococcus luteus; 24 h): 0% | % of strains producing colored or fluorescent colonies (Micrococcus luteus; 48 h): 0% | % of strains producing colored or fluorescent colonies (S. aureus (MSSA); 18 h): 100% | % of strains producing colored or fluorescent colonies (S. aureus (MSSA); 24 h): 100% | % of strains producing colored or fluorescent colonies (S. aureus (MSSA); 48 h): 100% | % of strains producing colored or fluorescent colonies (S. aureus (MRSA); 18 h): 100% | % of strains producing colored or fluorescent colonies (S. aureus (MRSA); 24 h): 100% | % of strains producing colored or fluorescent colonies (S. aureus (MRSA); 48 h): 100% | % of strains producing colored or fluorescent colonies ([2]; 18 h): 3% | % of strains producing colored or fluorescent colonies ([2]; 24 h): 3% | % of strains producing colored or fluorescent colonies ([2]; 48 h): 3% | Number of strains producing a coloration, Positive at 18 h (Coagulase-negative; 300 ml/g catechol-β-D-riboside, ammoniacal iron citrate 500 mg/l, coagulase-negative, 18 h): 0/6 | Number of strains producing a coloration, Positive at 24 h (Coagulase-negative; 300 ml/g catechol-β-D-riboside, ammoniacal iron citrate 500 mg/l, coagulase-negative, 24 h): 0/6 | Number of strains producing a coloration, Positive at 48 h (Coagulase-negative; 300 ml/g catechol-β-D-riboside, ammoniacal iron citrate 500 mg/l, coagulase-negative, 48 h): 1/6 | detection of the other species of the Staphylococcus genus (Coagulase-negative; from 18 hours onward): none of the other species of the Staphylococcus genus were detected | Number of strains producing a coloration/total number of strains, positive at 18 h (Coag neg; 18 h): 10/46 | Number of strains producing a coloration/total number of strains, positive at 24 h (Coag neg; 24 h): 14/46 | Number of strains producing a coloration/total number of strains, positive at 48 h (Coag neg; 48 h): 14/46 | Number of strains producing a coloration, Positive at 18 h ([3]; 300 ml/g catechol-β-D-riboside, ammoniacal iron citrate 500 mg/l, S. aureus, 18 h): 5/5 | Number of strains producing a coloration, Positive at 24 h ([3]; 300 ml/g catechol-β-D-riboside, ammoniacal iron citrate 500 mg/l, S. aureus, 24 h): 5/5 | Number of strains producing a coloration, Positive at 48 h ([3]; 300 ml/g catechol-β-D-riboside, ammoniacal iron citrate 500 mg/l, S. aureus, 48 h): 5/5 | coloration for S. aureus ([3]; from 18 hours onward): 100% | % of strains producing colored or fluorescent colonies (Enterococci; 18 h): 2% | % of strains producing colored or fluorescent colonies (Enterococci; 24 h): 2% | % of strains producing colored or fluorescent colonies (Enterococci; 48 h): 2%
